Laboratory results from PMC9841589, “Identification of 2-Aminoacyl-1,3,4-thiadiazoles as Prostaglandin E2 and Leukotriene Biosynthesis Inhibitors” (ACS Medicinal Chemistry Letters, 2022).

How the values were obtained:
[1] = target: T1, mPGES-1 (Homo sapiens, UniProt O14684); assay: Cell-free mPGES-1 activity assay (PGE2 biosynthesis); type: biochemical; conditions: for remaining activity at 10 µM: percentage of control (100%), read-out: mPGES-1 residual activity at 10 μM (%); for IC50: n = 3, read-out: IC50 value ± SEM (mPGES-1, cell-free)
T1 construct: endogenous in cells; host or cells: A549 cells stimulated with IL-1β; microsomal fraction
T1 sequence (O14684 1-152): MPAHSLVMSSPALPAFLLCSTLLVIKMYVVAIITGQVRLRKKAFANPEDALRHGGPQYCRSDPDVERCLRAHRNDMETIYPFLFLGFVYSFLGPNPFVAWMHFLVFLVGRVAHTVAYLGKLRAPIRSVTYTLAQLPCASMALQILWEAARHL
Excerpt: (Table 1). […] From the structural point of view, the biological affinities of compounds 3 and 7 (Figure 2A and C) could be positively affected by the 2-bromobenzoyl substituent able to accommodate in a deep binding pocket on the mPGES-1 surface. This moiety interacts by van der Waals contacts with amino acids of the cytoplasmic part and establishes π-stacking with Phe44ChainC and His53ChainC hydrogen bonds with Ser127, and a halogen bond between the bromine atom and the side chain of Aps49ChainC. Furthermore, the 3-phenylphenol and 2-aminobiphenyl moieties of 3 and 7 (Figure 2A and C), respectively, are able to establish a peculiar π-stacking with Tyr130ChainA and a hydrogen bond with Gln134ChainA. […]
mM glutathione, and 250 mM sucrose) and the protein concentration was defined. Potassium phosphate buffer (0.1 M, pH = 7.4) plus glutathione (2.5 mM) was added to dilute microsomes, which were then seeded in a 96-well plate. […]
preincubated for 15 min on ice. MK886 (10 µM) and MD-52 (1 µM) were used as reference drugs.
The reactions started by adding 20 µM of PGH2, and 1 min later, 100 µl of a solution containing FeCl3 (40 mM), citric acid (80 mM), and 11β-PGE 2 (10 µM) were added for stopping the conversion of PGH2. After the extraction of PGE2 and 11β-PGE 2 (internal stardard) by solid-phase extraction, […]

[2] = system: 5-LO product formation in human M1 macrophages; assay: Determination of LO products in human macrophages; type: cell-based; conditions: 10 µM, activated by Staphylococcus aureus for 90 min
Procedure: Figure S4. Human monocyte-derived macrophages were pre-treated with test compounds (10 µM) or vehicle 15 min prior stimulation. Cells were then stimulated with S. aureus for 90 min. Data are expressed as percentage of the mean of the 100% control DMSO of n=3 experiments. […]
Determination of LO products in human macrophages
Human M1 macrophages (2 x 10^6 /mL) were pre-treated with test compounds or vehicle (DMSO, 0.1%) for 15 min. Afterward, 1% Staphylococcus aureus 6850wt-conditioned medium (SACM) was added for 90 minutes at 37 °C in order to induce LO product formation. The reaction was stopped by transferring supernatants (1 mL) into 2 mL ice-cold MeOH. After addition of the deuterated LM standards (200 nM d8-5S-HETE, d4-LTB4, d5-LXA4, d5-RvD2, d4-PGE2 and 10 µM d8-AA; Cayman Chemical/Biomol GmbH, Hamburg, Germany), samples were kept at −20 °C for 60 min and then centrifuged (1,200×g, 4°C, 10 min). Solid-phase C18 cartridges were equilibrated with 6 mL methanol before the addition of 6 mL H2O. Then, 9 mL acidified H2O (pH 3.5, HCl) was added, and the samples were loaded onto the conditioned C18 columns that were subsequently washed with 6 mL H2O, followed by 6 mL n-hexane. The LM were eluted with 6 mL of methyl formate, samples were brought to dryness using an evaporation system (TurboVap LV, Biotage) and immediately […]
resuspended in methanol-water (50:50 vol/vol) for UPLC-MS-MS automated injections. The UPLC-MS-MS system consisted of an Acquity UPLC BEH C18 column (1.7 µm, 2.1 × 50 mm, Waters) and an AcquityTM UPLC (Waters) as well as a QTRAP 5500 mass spectrometer (Sciex, Darmstadt, Germany) equipped with an electrospray ionization source. The QTrap 5500 was operated in negative ionization mode using scheduled multiple reaction monitoring (MRM) coupled with the information-dependent acquisition (IDA) and an enhanced product ion scan (EPI). The scheduled MRM window was 90 s, and each LM parameter was optimized individually. LOX product analysis, using an MRM method with diagnostic ion fragments and identification, was performed as described previously.922 […]
Following incubations of 24 h, cells were collected with a cell scraper and, after centrifugation at 14000 × g for 10 min at 4 °C, the supernatant was collected and stored at −80°C for ELISA analysis 1023.
Male CD-1 mice (25–30 g of weight) were obtained from Charles River (Milan, Italy) and kept in an animal care facility under controlled temperature, humidity, with ad libitum access to water and standard laboratory chow diet. All experimental procedures were carried out according to the international and national law and policies (EU Directive 2010/63/EU for animal experiments, ARRIVE guidelines, and the Basel declaration including the 3R concept)11,1224, 25. […]

[3] = system: LPS-stimulated J774A.1 macrophages; assay: Determination of IL-6 and PGE2 in murine macrophages; type: cell-based, mouse; conditions: J774A.1, LPS 10 μg/mL, compound 1 μM, 24 h
Procedure: LOX product analysis, using an MRM method with diagnostic ion fragments and identification, was performed as described previously.922 Determination of IL-6 and PGE2 in murine macrophages Mouse macrophage cell line (J774A.1, ATCC® TIB-67™) was cultured in DMEM supplemented with FBS (ATCC® 30-2020™) to a final concentration of 10%. Cells were seeded in petri culture (100 × 20 mm, Falcon ®) at a density of 5 × 10^5 cells per dish and allowed to grow for dishes 24 h. The medium was then replaced, and cells were treated with LPS (10 ) in the presence or absence of μg/ml compounds 3, 6, 7, 9 (1 µM). Following incubations of 24 h, cells were collected with a cell scraper and, after centrifugation at 14000 × g for 10 min at 4 °C, the supernatant was collected and stored at −80°C for ELISA analysis 1023.

Row | remaining activity at 10 µM [1] | IC50 [1] | SMILES | cellular 5-LO product formation in pro-inflammatory macrophages [2] | PGE2 production [3] | IL-6 production [3]
1 | 31.7% | 3100 ± 600 nM | Cc1cc(C(=O)Nc2nnc(-c3ccc(-c4ccccc4N)cc3)s2)cc(Cl)n1 [compound 6] | potent inhibition of cellular 5-LO product formation |  | 
2 | 20.9% | 1700 ± 300 nM | Nc1ccccc1-c1ccc(-c2nnc(NC(=O)c3c(Cl)ccnc3Cl)s2)cc1 [compound 9] | potent inhibition of cellular 5-LO product formation |  | 
3 | 16.7% | 150 nM | Nc1ccccc1-c1ccc(-c2nnc(NC(=O)c3ccccc3Br)s2)cc1 [compound 7] | potent inhibition of cellular 5-LO product formation | displayed a similar activity only in terms of PGE2 modulation | 
4 | 8.4% | 200 nM | O=C(Nc1nnc(-c2ccc(-c3cccc(O)c3)cc2)s1)c1ccccc1Br [compound 3] | potent inhibition of cellular 5-LO product formation | able to modulate | able to modulate
